Assay results: patent EP2415863A1, “Mutant glucose oxidase” (B.R.A.I.N., priority 2010, dated 2012)

Columns and labels:
Format in all cases: biochemical
[1] = target: T1, Aspergillus niger glucose oxidase (GOx), wild type, SEQ ID NO: 3 (Aspergillus niger, UniProt P13006); experiment: Kinetic constants by ABTS assay, wt GOx; settings: 2.5-100 mM glucose
T1 construct: made in house; host or cells: Saccharomyces cerevisiae (pYES2 vector)
From the text: (§1) For detection of GOx activity the ABTS assay was used. 2,2'-azino-bis(3-ethylbenzthiazoline-6-sulphonic acid (ABTS) is commonly used as a substrate with hydrogen peroxide for a peroxidase generating enzyme. Its use allows the reaction kinetics of peroxidases to be followed, to indirectly follow the reaction kinetics of a hydrogen peroxide-producing enzyme or to quantify the amount of hydrogen peroxide in a sample [vanGijlswijk, R.P.M., et al., Fluorochrome-labeled tyramides: Use in immunocytochemistry and fluorescence in situ hybridization. Journal of Histochemistry & Cytochemistry, 1997. 45(3): p. 375-382].
(§2) The kinetic constants were determined using the Specord 200 from (Analytik Jena, Germany) and the ABTS assay [Zhu, Z.W., et al. 2006, Making glucose oxidase fit for biofuel cell applications by directed protein evolution. Biosensors & Bioelectronics, 21(11): 2046-2051]. The measurements were performed in 1 ml of reaction volume and 1 cm light pathway cuvettes, using 2.5, 5, 10, 25, 50 and 100 mM glucose. The data were fitted using Origin 6 (OriginLab Corporation, Northampton).

[2] = target: T2, Aspergillus niger glucose oxidase (GOx) variant M12, N2Y, K13E, T30V, I94V, K152R, SEQ ID NO: 1 (Aspergillus niger, UniProt P13006, I116V/K174R/K35E/N24Y/T52V); experiment: Kinetic constants by ABTS assay, GOx mutant M12; settings: as restated in the description text
T2 construct: made in house; host or cells: Saccharomyces cerevisiae (pYES2)
From the text: as §1, §2

[3] = target: T3, Aspergillus niger glucose oxidase (GOx) parent mutant B11, T30V, I94V, SEQ ID NO: 5 (Aspergillus niger, UniProt P13006, I116V/T52V); experiment: Kinetic constants by ABTS assay, parent GOx B11; settings: as restated in the description text
T3 construct: made in house; host or cells: Saccharomyces cerevisiae (pYES2 plasmid B11 GOx)
From the text: as §1, §2

T1 sequence (P13006 23-605 limits assumed): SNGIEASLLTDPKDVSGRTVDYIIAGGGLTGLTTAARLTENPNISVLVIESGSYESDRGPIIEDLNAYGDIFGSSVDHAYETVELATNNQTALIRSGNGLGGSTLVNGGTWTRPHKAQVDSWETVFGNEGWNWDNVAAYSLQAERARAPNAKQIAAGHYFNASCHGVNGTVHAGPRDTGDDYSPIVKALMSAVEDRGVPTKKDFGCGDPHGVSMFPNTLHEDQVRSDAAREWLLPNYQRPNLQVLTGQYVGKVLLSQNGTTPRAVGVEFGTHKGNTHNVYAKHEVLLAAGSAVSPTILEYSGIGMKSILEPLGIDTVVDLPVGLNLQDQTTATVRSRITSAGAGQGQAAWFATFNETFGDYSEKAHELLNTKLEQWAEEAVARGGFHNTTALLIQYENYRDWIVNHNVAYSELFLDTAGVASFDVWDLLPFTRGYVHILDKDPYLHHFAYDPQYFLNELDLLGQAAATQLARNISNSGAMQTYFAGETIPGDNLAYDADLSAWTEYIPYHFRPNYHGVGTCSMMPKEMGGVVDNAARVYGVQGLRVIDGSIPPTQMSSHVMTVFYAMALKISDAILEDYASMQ
T3 sequence (P13006 23-605 T52V/I116V limits assumed): as the sequence (P13006 23-605 limits assumed) above, with T30V, I94V counted along it
T2 sequence (P13006 23-605 N24Y/K35E/T52V/I116V/K174R limits assumed): as the sequence (P13006 23-605 limits assumed) above, with N2Y, K13E, T30V, I94V, K152R counted along it

SMILES: OC[C@H]1OC(O)[C@H](O)[C@@H](O)[C@@H]1O (stereo partly drawn) [glucose]
- kcat [1]: 54.8 s'
- kcat [2]: 150 s⁻¹
- kcat [3]: 80 s'
